Results from US10487071B2, “Bis-triazole compounds with anti-biofilm and anti-corrosion properties” (Université de Toulon, priority 2015, dated 2019).
Like-named read-outs stand apart in the source and are kept apart here.

Tests used:
Polaribacter sp. (TC5) [1] = assay: Anti-adhesion test, strain TC5; type: cell-based; settings: for activity at 200 µM: 15 h; for EC50: read-out: EC50 (effective concentration to inhibit 50% of the adhesion)
Experimental: (§1) Bacterial strains were grown on Väätänen nine-salts solution (VNSS). When the stationary phase was reached, the bacterial suspension was centrifuged. Cells were then diluted in sterile artificial sea water (ASW) and introduced in microtiter plates (sterile black PS; Nunc, Fisher Scientific, France) with the tested compound (at eight concentrations in three replicates) in the presence of three controls: (i) non-specific staining control, (ii) adhesion control, and (iii) positive control. The maximum percentage of solvent (DMSO 2%) used to dilute the tested compound was also tested in triplicate as additional control. After incubation during an optimized adhesion time (moderately 15 h), non-adhered bacteria were eliminated and adhered cells were quantified after SYTO 61 (1 μM) staining. A percentage of inhibition was calculated per well. A sigmoid dose-response curve was obtained by plotting the percentage of inhibition as a function of the log of tested compound concentration, after mean (n=3) and standard deviation (SD) calculation per triplicate for each concentration. EC50 values were then calculated for each compound.
(§2) Polaribacter sp. (TC5) was isolated in June 2010 in the Military Harbor of Toulon (Mediterranean Sea, France) as described in F. Brian-Jaisson, A. Ortalo-Magné, L. Guentas-Dombrowsky, F. Armougom, Y. Blache, M. Molmeret, Microb. Ecol., 2014, 68, 94-110.

[2] = system: marine bacterial strains (TC14, TC8, 4M6, TC5 and TC11); assay: Toxicity test, summary over the strains; type: cell-based; settings: comparison with reference biocides
Source text: (§3) In examples 64 and 65, the following marine bacterial strains are used.

[3] = Gravimetry (weight loss), corrosion inhibition; settings: mild steel in 1N HCl
Experimental: The corrosion rates were determined by electrochemical impedance spectroscopy measurements and gravimetry.
Weight loss measurements were performed on 2.5×2.0×0.1 cm rectangular mild steel coupons. The mild steel coupons were immersed into non-de-aerated HCl 1N solution in absence and presence of different concentrations of compounds of general formula (I). After the elapsed time, the coupons were taken out, washed, dried and weighed accurately. Experiments were duplicated.
Weight loss experiments were done to confirm the corrosion inhibitive properties of AS164.
The inhibition efficiency, IE (%), was estimated from the weight loss experiments using the following equation:
[formula] wherein CR^o and CR are respectively the corrosion rate in the absence and presence of AS164.

[4] = system: Pseudoalteromonas ulvae (TC14); assay: Anti-adhesion test, strain TC14; type: cell-based; settings: for activity at 200 µM / EC50: Pseudoalteromonas ulvae; for activity at 200 µM: 15 h; for EC50: read-out: EC50 (effective concentration to inhibit 50% of the adhesion)
Experimental: as §1
(§4) Pseudoalteromonas ulvae (TC14) was isolated in June 2010 in the Military Harbor of Toulon (Mediterranean Sea, France) as described in F. Brian-Jaisson, A. Ortalo-Magné, L. Guentas-Dombrowsky, F. Armougom, Y. Blache, M. Molmeret, Microb. Ecol., 2014, 68, 94-110.

Shewanella sp. (TC11) [5] = assay: Toxicity test, strain TC11; type: cell-based
Source text: (§5) Shewanella sp. (TC11) was isolated in June 2010 in the Military Harbor of Toulon (Mediterranean Sea, France) as described in F. Brian-Jaisson, A. Ortalo-Magné, L. Guentas-Dombrowsky, F. Armougom, Y. Blache, M. Molmeret, Microb. Ecol., 2014, 68, 94-110.

Polaribacter sp. (TC5) [6] = assay: Toxicity test, strain TC5; type: cell-based; settings: for CC50: read-out: LC50 (necessary concentration to kill 50% of the bacteria)
Source text: as §2

[7] = system: Pseudoalteromonas ulvae (TC14); assay: Toxicity test, strain TC14; type: cell-based
Source text: as §4

Shewanella sp. (TC11) [8] = assay: Anti-adhesion test, strain TC11; type: cell-based; settings: for activity at 200 µM: 15 h; for EC50: read-out: EC50 (effective concentration to inhibit 50% of the adhesion), strain TC11
Experimental: as §1, §5

[9] = system: Pseudoalteromonas lipolytica (TC8); assay: Anti-adhesion test, strain TC8; type: cell-based; settings: Pseudoalteromonas lipolytica; for activity at 200 µM: 15 h, read-out: % of adhesion at 200 μM, TC8; for EC50: read-out: EC50 (effective concentration to inhibit 50% of the adhesion), TC8
Experimental: (§6) The anti-adhesion bioassays and toxicity tests are adapted from those disclosed in M. Camps, J.-F. Briand, L. Guentas-Dombrowsky, G. Culioli, A. Bazire and Y. Blache, Mar. Poll.
as §1

[10] = system: Pseudoalteromonas lipolytica (TC8); assay: microbe, parasite or virus in culture; settings: for CC50: Pseudoalteromonas lipolytica, read-out: LC50 (necessary concentration to kill 50% of the bacteria), TC8; for IS: LC50/EC50 (selectivity index), TC8: strain TC8
Source text: as §6
(§7) After growth on VNSS, bacterial strains were harvested during the exponential phase. The microtiter plates (sterile transparent PS; Nunc, Fisher Scientific) were filled as described in the Anti-adhesion test method using VNSS instead of ASW to allow bacterial growth. The growth was followed by measuring the turbidity (OD600 nm) every hour during 6 or 7 hours. Then, resazurin (50 μM) was added in all the wells, and fluorescence was measured after 2 h to quantify the percent of bacterial viability. The same methodology used with SYTO 61 was applied to calculate a percent of viability after resazurin staining.

Paracoccus sp. (4M6) [11] = assay: microbe, parasite or virus in culture; settings: for CC50: Paracoccus, read-out: LC50 (necessary concentration to kill 50% of the bacteria), 4M6; for IS: LC50/EC50 (selectivity index), 4M6: strain 4M6
Source text: as §6, §7

Paracoccus sp. (4M6) [12] = assay: Anti-adhesion test, strain 4M6; type: cell-based; settings: Paracoccus; for activity at 200 µM: 15 h, read-out: % of adhesion at 200 μM, 4M6; for EC50: read-out: EC50 (effective concentration to inhibit 50% of the adhesion), 4M6
Experimental: as §6, §1

[13] = system: marine bacterial strains (TC14, TC8, 4M6, TC5 and TC11); assay: Anti-adhesion test, summary over the strains; type: cell-based; settings: for EC50 compared with TBTO/ZINEB: comparison with reference biocides
Experimental: as §1, §3

[14] = read-out: inhibition of the adhesion of at least four marine bacterial strains
[15] = read-out: inhibition of the adhesion of at least two marine bacterial strains
[16] = 200 μM, strain TC11, read-out: % of adhesion at 200 μM, TC11

SMILES | activity at 200 µM (Polaribacter sp. (TC5) [1]) [%] | EC50 (Polaribacter sp. (TC5) [1]) [µM] | toxicity by LC50 values compared with TBTO/ZINEB [2] | IE % ([3]; 0.1 ppm) [%] | IE % ([3]; 0.3 ppm) [%] | IE % ([3]; 0.5 ppm) [%] | IE % ([3]; 2 ppm) [%] | IE % ([3]; 10 ppm) [%] | activity at 200 µM ([4]; 200 μM) [%] | EC50 [4] [µM] | IS: LC50/EC50 (selectivity index), TC11 (Shewanella sp. (TC11) [5]) | LC50 (necessary concentration to kill 50% of the bacteria), TC11 (Shewanella sp. (TC11) [5]) [µM] | IS: LC50/EC50 (selectivity index), TC5 (Polaribacter sp. (TC5) [6]) | CC50 (Polaribacter sp. (TC5) [6]) [µM] | IS: LC50/EC50 (selectivity index), TC14 [7] | activity at 200 µM [9] [%] | EC50 [9] [µM] | activity at 200 µM (Paracoccus sp. (4M6) [12]) [%] | EC50 (Paracoccus sp. (4M6) [12]) [µM] | inhibition at 200 µM [13, 15] [%] | also measured
CN(C)CCOc1ccc(CCn2cc(-c3ccc(-c4cn(CCc5ccc(OCCN(C)C)c(Br)c5)nn4)cc3)nn2)cc1Br [AS162, 2-(4-(2-(4-(4-(1-(4-(2-(dimethylamino)ethoxy)-3-bromophenethyl)-1H-1,2,3-triazol-4-yl)phenyl)-1H-1,2,3-triazol-1-yl)ethyl)-2-bromophenoxy)-N,N-dimethylethanamine] | 21.5 ± 6.6 | 15.5 ± 0.1 | less toxic than TBTO and ZINEB | 48.81 | 93.35 | 92.92 | 97.73 | 97.30 | 0 | 0.97 ± 0.8 | 26.5 | 334.3 | 24.6 | 382 | 265.7 | 14 | 5.1 ± 1 | 10.9 ± 8.1 | 5.1 ± 1.04 | ≥ 65 | inhibition of the adhesion of bacterial strain TC14 ([4]; 200 μM): totally inhibit; LC50 (necessary concentration to kill 50% of the bacteria), TC14 [7]: 257.7 µM; activity at 200 µM (Shewanella sp. (TC11) [8]; read-out: % of adhesion at 200 μM, TC11): 4.3 ± 7.5%; EC50 (Shewanella sp. (TC11) [8]): 12.6 ± 5.1 µM; CC50 [10]: 66.1 µM; IS: LC50/EC50 (selectivity index), TC8 [10]: 12.9; CC50 (Paracoccus sp. (4M6) [11]): 97.6 µM; IS: LC50/EC50 (selectivity index), 4M6 (Paracoccus sp. (4M6) [11]): 19.2; EC50 compared with TBTO/ZINEB [13]: comparable to that of TBTO and lower than that of ZINEB; inhibition at 200 µM [13, 14]: ≥ 85%
CN(C)CCCOc1c(Br)cc(CCn2cc(-c3ccc(-c4cn(CCc5cc(Br)c(OCCCN(C)C)c(Br)c5)nn4)cc3)nn2)cc1Br [SA34, 3-(4-(2-(4-(4-(1-(4-(3-(dimethylamino)propoxy)-3,5-dibromophenethyl)-1H-1,2,3-triazol-4-yl)phenyl)-1H-1,2,3-triazol-1-yl)ethyl)-2,6-dibromophenoxy)-N,N-dimethylpropan-1-amine] | 7.9 ± 7.3 | 4.6 ± 6.3 | less toxic than ZINEB | 52.40 | 70.39 | 92.23 | 96.25 | 95.69 | 13 ± 7.7 | 13.1 ± 1 | 4.3 | 115.9 | 20.5 | 94.3 | 10.1 | 10.2 ± 3.1 | 50.5 ± 10.9 | 8.2 ± 3.5 | 1.5 ± 2.1 | ≥ 65 | LC50 (necessary concentration to kill 50% of the bacteria), TC14 [7]: 132 µM; activity at 200 µM (Shewanella sp. (TC11) [8]; [16]): 7 ± 3.12%; EC50 (Shewanella sp. (TC11) [8]): 27.2 ± 0.5 µM; CC50 [10]: 174 µM; IS: LC50/EC50 (selectivity index), TC8 [10]: 3.5; CC50 (Paracoccus sp. (4M6) [11]): 114 µM; IS: LC50/EC50 (selectivity index), 4M6 (Paracoccus sp. (4M6) [11]): 75.7; EC50 compared with TBTO/ZINEB [13]: comparable to that of ZINEB; inhibition at 200 µM [13, 14]: ≥ 85%
CN(C)CCOc1ccc(CCn2cc(COCc3cn(CCc4ccc(OCCN(C)C)c(Br)c4)nn3)nn2)cc1Br [AS163, 2-(4-(2-(4-(((1-(4-(2-(dimethylamino)ethoxy)-3-bromophenethyl)-1H-1,2,3-triazol-4-yl)methoxy)methyl)-1H-1,2,3-triazol-1-yl)ethyl)-2-bromophenoxy)-N,N-dimethylethanamine] |  |  |  | 82.24 | 89.36 | 94.54 | 96.52 | 97.07 | 34.8 ± 2.7 | 91.8 ± 17.9 |  |  |  |  |  | 34.6 ± 5.1 | 102 ± 46.2 | 40.4 ± 7.8 | 146 ± 81.9 | ≥ 65 | 
Oc1ccc(CCn2cc(-c3ccc(-c4cn(CCc5ccc(O)c(Br)c5)nn4)cc3)nn2)cc1Br [NT23, 1,4 bis (1-(3-bromo-4-hydroxyphenethyl)-1H-1,2,3-triazol-4-yl) benzene] |  |  |  |  |  |  |  |  | 31 ± 6.1 | 40.9 ± 11.4 |  |  |  |  |  | 58.3 ± 8.7 |  | 31.8 ± 3.5 | 59.9 ± 7.7 | ≥ 65 | 
Oc1ccc(CCn2cc(-c3ccc(-c4cn(CCc5ccc(O)c(I)c5)nn4)cc3)nn2)cc1I [SA43, 1,4 bis (1-(3-iodo-4-hydroxyphenethyl)-1H-1,2,3-triazol-4-yl) benzene] | 23.8 ± 0.1 | 58 ± 1.61 | less toxic than ZINEB |  |  |  |  |  | 6.8 ± 1.2 | 20.7 ± 5.2 | 80.4 | 88.4 | 5.5 | 320 | 11.4 | 10.5 ± 12 | 30.3 ± 31.3 | 13.6 ± 8.9 | 53.8 ± 50.9 | ≥ 65 | LC50 (necessary concentration to kill 50% of the bacteria), TC14 [7]: 236.9 µM; activity at 200 µM (Shewanella sp. (TC11) [8]; [16]): 4.6 ± 0.1%; EC50 (Shewanella sp. (TC11) [8]): 1.1 ± 0.6 µM; CC50 [10]: 270 µM; IS: LC50/EC50 (selectivity index), TC8 [10]: 8.9; CC50 (Paracoccus sp. (4M6) [11]): 352 µM; IS: LC50/EC50 (selectivity index), 4M6 (Paracoccus sp. (4M6) [11]): 6.5; EC50 compared with TBTO/ZINEB [13]: comparable to that of ZINEB; inhibition at 200 µM [13, 14]: ≥ 85%
